Laboratory results: patent publication US20190069542A1, “COMPOSITIONS AND METHODS FOR REPELLING AND KILLING TICKS AND DETACHMENT OF FEEDING TICKS” (EVOLVA SA, priority 2016, published 2019)
Values joined by “and” are separate entries in the source; they are usually repeats but may differ in a detail not shown here. Identical values can stand only once.

Key:
ticks = assay: Shell-vial bioassay of morbidity and mortality of ticks; assay type: in vivo; conditions: for LC50: calculated at 24 hours from Table No. 7
Protocol: Next, a shell-vial bioassay was performed to determine whether the nootkatone of the test products (i.e., space spray, lotion, and soap) lost biocidal activity due to the formulation process. The nootkatone derivatives from Example No. 1 were also tested to determine relative biocidal activity. Serial dilutions of each 2% product and nootkatone derivatives were made for a total of 8 concentrations per formulation/derivative. Controls included untreated controls and a nootkatone in acetone composition as a positive control. One hundred and fifty microliters of each concentration was added to a 1 dram glass shell vial and allowed to dry (see FIGS. 3A and 3B).
Each shell vial with ticks added was placed in a humid container, and morbidity and mortality of ticks were determined at 1 hr and 24 hr post-treatment. Each experiment was performed twice and the results averaged. […]

[1] = Solvent dissolution tests of nootkatone; assay type: physicochemical; conditions: data not shown
Protocol: Initially, solvent dissolution tests of nootkatone were performed.

Row | Structure (SMILES) | # Alive/10 (ticks; 0.002%, 1 hr) | # Alive/10 (ticks; 0.002%, 24 hr) | # Alive/10 (ticks; 0.004%, 1 hr) | # Alive/10 (ticks; 0.004%, 24 hr) | # Alive/10 (ticks; 0.008%, 1 hr) | # Alive/10 (ticks; 0.008%, 24 hr) | # Alive/10 (ticks; 0.016%, 1 hr) | # Alive/10 (ticks; 0.016%, 24 hr) | # Alive/10 (ticks; 0.031%, 1 hr) | # Alive/10 (ticks; 0.031%, 24 hr) | # Alive/10 (ticks; 0.063%, 1 hr) | # Alive/10 (ticks; 0.063%, 24 hr) | # Alive/10 (ticks; 0.125%, 1 hr) | # Alive/10 (ticks; 0.125%, 24 hr) | # Alive/10 (ticks; 0.25%, 1 hr) | # Alive/10 (ticks; 0.25%, 24 hr) | LC50 (ticks) | also measured
1 | C=C(C)[C@@H]1CCC2CC(=O)C[C@@H](C)[C@]2(C)C1 (stereo partly shown) [1,10 dihydronootkatone, 1,10-dihydronootkatone] | 10 | 9 | 10 | 10 | 10 | 6 | 10 | 6 | 10 | 3 | 10 | 1 | 10 | 2 | 10 | 1 | 0.0097% | 
2 | CC(C)C1CCC2=CC(=O)CC(C)C2(C)C1 (stereo not shown) [11,12 dihydronootkatone, 11,12-dihydronootkatone] | 10 | 6 | 10 | 7 | 10 | 1 | 10 | 0 | 10 | 0 | 10 | 0 | 2 | 0 | 2 | 0 | 0.0071% | 
3 | C=C(C)[C@@H]1CCC2=CC(=O)C[C@@H](C)[C@]2(C)C1 [Nootkatone, nootkatone] |  |  |  |  |  |  |  |  |  |  |  |  |  |  | 3 and 2 | 0 |  | dissolution of nootkatone in solvent ([1]; glycerin): unable to successfully dissolve; dissolution of nootkatone in solvent ([1]; water): unable to successfully dissolve; # Alive/10 (ticks; 0.01%, 1 hr): 7 and 5; # Alive/10 (ticks; 0.01%, 24 hr): 5 and 7; # Alive/10 (ticks; 0.02%, 1 hr): 5; # Alive/10 (ticks; 0.02%, 24 hr): 0; # Alive/10 (ticks; 0.03%, 1 hr): 4; # Alive/10 (ticks; 0.03%, 24 hr): 0; # Alive/10 (ticks; 0.06%, 1 hr): 4; # Alive/10 (ticks; 0.06%, 24 hr): 0; # Alive/10 (ticks; 0.13%, 1 hr): 4; # Alive/10 (ticks; 0.13%, 24 hr): 0; # Alive/10 (ticks; 0.5%, 24 hr): 0; LC50 (ticks; listed as Nootkatone control): 0.0074% and 0.0073%
4 | CC(C)[C@@H]1CCC2CC(=O)C[C@@H](C)[C@]2(C)C1 (stereo partly shown) [Tetrahydronootkatone, tetrahydronootkatone] | 10 | 10 | 10 | 10 | 9 | 9 | 7 | 7 | 7 | 7 | 6 | 5 | 6 | 4 | 5 | 1 | 0.0780% | 
